Source: PMC5896955, “The signaling lipid sphingosine 1-phosphate regulates mechanical pain” (eLife, 2018)

Biological target: T1, S1P Receptor 3 (S1PR3) (Mus musculus, UniProt Q9Z0U9)
T1 construct: native receptor / S1PR3-mCherry fusion in cultured mouse DRG neurons
Test: Fura-2 calcium imaging of DRG neurons with S1PR3 knockout control; also S1PR3-dependent tail current inhibition ([…])
Assay type: cell-based

T1 sequence (Q9Z0U9 whole entry, the tested form may be a part): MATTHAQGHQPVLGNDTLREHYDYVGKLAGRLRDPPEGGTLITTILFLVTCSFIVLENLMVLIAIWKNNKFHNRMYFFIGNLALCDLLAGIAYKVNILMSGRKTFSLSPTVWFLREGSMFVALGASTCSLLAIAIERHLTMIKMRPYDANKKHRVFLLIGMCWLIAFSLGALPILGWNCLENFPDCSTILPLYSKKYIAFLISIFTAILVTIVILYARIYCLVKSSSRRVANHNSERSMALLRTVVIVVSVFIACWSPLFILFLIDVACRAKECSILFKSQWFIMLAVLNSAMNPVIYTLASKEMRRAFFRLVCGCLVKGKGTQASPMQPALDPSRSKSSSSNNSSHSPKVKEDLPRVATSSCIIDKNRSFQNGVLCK

## CCCCCCCCCCCCC/C=C/[C@@H](O)[C@@H](N)COP(=O)(O)O [S1P, Sphingosine 1-phosphate]
  EC50: 155 nM
